Results on two compounds are retold here after patent publication US6641851B2, “Herbal laxative preparation” (The Himalaya Drug Company, priority 2001, dated 2003).

The subject of the assay is Wistar rats. As to the kind of experiment: Laxative test in rats. It counts as in vivo, rat. As to conditions: for laxative activity: 50 mg/kg b.wt, in words. As for the experimental part: Animals Wistar rats (180-200 g) of either sex were used for the study. The animals were housed in standard laboratory conditions and provided with a temperature of 22±3° C., relative humidity of 50-55% and a 12-hour light/dark cycle. Drinking water and a synthetic pelleted diet (Lipton India Ltd., Mumbal) were supplied ad libitum. The Ethical Committee of the institution approved the experimental protocol. All the animals received humane care according to the criteria outlined in the “Guide for the care and use of Laboratory Animals” prepared by the National Academy of Sciences and published by The National Institute of Heath. Laxative Test in Rats Twenty-four animals of either sex were randomly divided into 4 groups of 6 rats each. Food was withdrawn 12 hrs. before the experiment. […] The animals were then housed individually in cages lined with blotting paper and observed for 24 hrs. The total number of wet fecal produced from each group was noted [Akah P A, Oli […](4):327]. The laxative property of the one of the selected extract KP-4 was further tested to determine the laxative property in relation to the dosage administered in rats. For the purpose the rats were grouped in four groups. Group I received saline and served as control. […] The animals were then housed individually in cages lined with blotting paper and observed for 24 hrs. The total number of wet fecal produced from each group was noted.

Take `COc1cc(/C=C/C(=O)O)ccc1O` [Compound C-8, Ferulic acid]: where the note is “50 mg/Kg, compounds from KP-1B”, the “No of Animals Responded” value was 10/10, the No. of faeces came to 7.80 ± 0.80, the “On set of Action” value worked out at 179.00 ± 22.66 min and the “Percentage of Action” value came out at 100. In addition, the laxative activity entry (listed as C8, 50 mg/kg) is “significant laxative action”. Moreover, the laxative activity result (listed as ferulic acid, 50 mg/kg) is “promising activity”.
For the compound `COc1cc(C(=O)O)ccc1O` [Compound C-9, Vanillic acid], where the note is “50 mg/Kg, compounds from KP-1B”, the “No of Animals Responded” value was “Nil” and the “Percentage of Action” value is on record as “Nil”.
